Some test systems named below: SF-295; RPMI-8226; DU-145; IGROV-1; U-251; SK-MEL-5; HCT-116; PC-3; ACHN; HCC 2998; SW-620; UO-31; OVCAR-3; HCT-15; MOLT-4; SK-MEL-2; HOP-92; A549; A498.
What all share (assay): inhibition of tumour cell growth, NCI panel, 48 h

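Each compound was tested at five concentrations against cells in 96-well plates for 48 hours. GI50 = concentration required for 50% inhibition of growth.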 Active and inactive are the calls of the source. Cut-off read from the data, not from the text of the source: active = GI50 up to about 1.1 µM and inactive = higher. Bounds are passed on as bounds.

As to `Cc1c2c(OCCN3CCCCC3)nn(C)c(=O)c2c(C)n1-c1ccccc1`, the GI50 was 21.2 µM (inactive) in the experiment on SF-295; 23.6 µM (inactive) in the experiment on RPMI-8226; 52.7 µM (inactive) in the experiment with DU-145; 70.5 µM (inactive) with IGROV-1; 49.2 µM (inactive) in the experiment on U-251; 16.7 µM (inactive) in the experiment with SK-MEL-5. The GI50 in the experiment on HCT-116 is 38.6 µM (inactive); with PC-3 it was 30.1 µM (inactive); with ACHN, 28.5 µM (inactive); in the experiment with HCC 2998, 28.1 µM (inactive); in the experiment with SW-620, 55 µM (inactive); in the experiment on UO-31 it was 12.2 µM (inactive). For the same molecule, the GI50 is 77.6 µM (inactive) with OVCAR-3; 32 µM with HCT-15; 29.5 µM (inactive) in the experiment with MOLT-4; 17 µM (inactive) with SK-MEL-2; 58.9 µM (inactive) in the experiment on HOP-92; 43.6 µM (inactive) with A549. In addition, in the experiment on A498, the GI50 was 16.4 µM (inactive).
`COC(=O)[C@@H](NC(=O)N(CCC#N)CCCN(C(=O)N[C@H](Cc1ccccc1)C(=O)OC)c1ccccc1)C(C)C`: the GI50 in the experiment on SF-295 was > 100 µM (inactive); in the experiment with RPMI-8226, 25.1 µM (inactive); with DU-145 it was > 100 µM (inactive); in the experiment on IGROV-1, 59.3 µM (inactive); in the experiment on U-251, > 100 µM (inactive); in the experiment on SK-MEL-5, 62.2 µM (inactive). Also, the GI50 in the experiment on HCT-116 is > 100 µM (inactive); in the experiment with PC-3, 81.8 µM (inactive); in the experiment on ACHN, 85.5 µM (inactive); in the experiment on HCC 2998, 47.3 µM (inactive); in the experiment on SW-620, > 100 µM (inactive); with UO-31, 97.5 µM (inactive). Also, the GI50 in the experiment with OVCAR-3 is 57.8 µM (inactive); in the experiment with HCT-15 it was 86.3 µM; in the experiment on MOLT-4, 23 µM (inactive); in the experiment on SK-MEL-2, 40.6 µM (inactive); in the experiment with HOP-92 it was 29.9 µM (inactive); in the experiment with A549, > 100 µM (inactive). In addition, the GI50 in the experiment on A498 is > 100 µM (inactive).
Consider `O=C(O)/C=C/c1ccc(O)c(O)c1` [CAFFEIC ACID], for which the GI50 in the experiment with SF-295, in the experiment on RPMI-8226, with DU-145, in the experiment on IGROV-1, in the experiment on U-251 and in the experiment with SK-MEL-5 was > 100 µM (inactive) each time. The GI50 with HCT-116 is > 100 µM (inactive); with PC-3 it was > 100 µM (inactive); in the experiment on ACHN, > 100 µM (inactive); with HCC 2998 it was > 100 µM (inactive); in the experiment with SW-620 it was > 43.3 µM (inactive); with UO-31, 77.6 µM (inactive). In addition, the GI50 with OVCAR-3 is > 100 µM (inactive); in the experiment on HCT-15 it was above 100 µM; with MOLT-4, > 100 µM (inactive); in the experiment on SK-MEL-2, > 100 µM (inactive); with HOP-92, > 100 µM (inactive); in the experiment with A549, > 100 µM (inactive). The GI50 with A498 was > 100 µM (inactive).
For the molecule `OCCOCn1nncc1Cn1ncc2c(O)ncnc21`, the GI50 with SF-295 is > 100 µM (inactive); in the experiment on DU-145 it was 43.7 µM (inactive); in the experiment with IGROV-1, > 100 µM (inactive); in the experiment with U-251 it was > 100 µM (inactive); in the experiment with SK-MEL-5, 47.5 µM (inactive); with HCT-116, > 100 µM (inactive). Also, the GI50 in the experiment on PC-3 is 55.1 µM (inactive); in the experiment with ACHN, > 100 µM (inactive); with HCC 2998 it was > 100 µM (inactive); with SW-620 it was 31.8 µM (inactive); in the experiment on UO-31 it was > 100 µM (inactive); in the experiment on OVCAR-3, 28.6 µM (inactive). The GI50 is above 100 µM in the experiment with HCT-15; 40 µM (inactive) in the experiment with MOLT-4; 54.1 µM (inactive) in the experiment with SK-MEL-2; > 100 µM (inactive) with HOP-92; 97.9 µM (inactive) in the experiment with A549; > 100 µM (inactive) in the experiment with A498.

These data come from ChEMBL document CHEMBL1201862, “PubChem BioAssay data set” (2004).
